Laboratory results published in patent publication US7993884B2, “Beta-xylosidase for conversion of plant cell wall carbohydrates to simple sugars” (The United States of America as represented by the …, priority 2006, dated 2011).
“And” between values parts separate entries of the source, which are not always exact repeats. Equal entries are not always repeated. Where two headings read alike, the source gives them in different places.

Columns and labels:
SXA [1] = molecular target: T1, SXA (Selenomonas ruminantium, UniProt O52575); assay: biochemical
Source text: (§1) Concentrations of D-xylose produced versus time were fitted to lines for determination of initial rates. For determination of steady-state kinetic parameters, initial rates were fitted to Eq. 2 (competitive inhibition).

[2] = molecular target: T2, Selenomonas ruminantium GA192 β-D-xylosidase (SXA), wild type, SEQ ID NO: 2 (Pseudoselenomonas ruminantium, UniProt O52575); assay: Steady-state kinetics of SXA with X2-X6, improved quenching, HPLC (Example 3); details: for factor by which kcat is higher than that of the Bacillus pumilus enzyme: SXA pH 5.3 vs B. pumilus pH 7.15, 25° C
Procedure: (§2) Samples (25 μL) were injected onto the column equilibrated with 0.1 M NaOH and developed with a 5-min linear gradient (0.1 M NaOH to 33 mM sodium acetate) at ˜25° C. and a flow rate of 1 mL min^−1.
(§3) Samples were kept on wet ice or the HPLC autosampler at 5° C. until analyzed by HPLC. Initial rates, calculated from linear regressions of the [D-xylose] produced versus time, were fitted to Eq. 1 to determine steady-state kinetic parameters.

[3] = molecular target: T2, Selenomonas ruminantium GA192 β-D-xylosidase (SXA), wild type, SEQ ID NO: 2; assay: Steady-state kinetics of SXA with 4NPX2, A2 and X2-X6 by HPLC (Example 1); details: for relative kcat value: A2 = 1
Procedure: (§4) Samples (25 μL) were injected onto the column equilibrated with 0.1 M NaOH and developed with a 15-min linear gradient (0.1 M NaOH to 15 mM sodium acetate) at ˜25° C. and a flow rate of 1 mL min^−1.
(§5) Before (time=0 min) and after (time=1-6 min) initiating reactions with enzyme (7 μL), samples (0.05-0.1 mL) were removed and quenched with an equal volume of 0.5 M acetic acid and frozen. Following lyophilization, samples were dissolved in H2O and analyzed by HPLC. […] Results from two replicate reactions were combined to provide data points for the progress curves.
(§6) Before and after addition of enzyme (7 μL), 25-μl aliquots of the reaction mixtures were directly injected onto the HPLC column for quantification of product L-arabinose.
Quenched samples were analyzed by HPLC for D-xylose. Initial rates were determined from linear regressions of [D-xylose] produced versus reaction time. […] Four 1-mL replicate reactions were conducted to supply data points for the progress curves. Two parallel reactions were conducted, under the same conditions with the same reaction components, the absorbance at 400 nm was continuously monitored (20 min) for 4NP production, and the absorbance values were converted to mM 4NP concentrations by using a delta extinction coefficient (product-substrate) of 8.22 mM^−1 cm^−1.

SXA [4] = molecular target: T1, SXA; assay: SXA-catalyzed hydrolysis of 4NP-glycoside substrates, initial rates (Methods A and B); format: biochemical;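 note: initial rates from 4-nitrophenol release, tracked by absorbance over roughly 0.3 min and converted using product-minus-substrate extinction differences, in 1 mL mixtures started by enzyme addition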
Procedure: (§7) Two methods were employed for determining initial rates. […] Initial rates were calculated from fitting the absorbance readings versus time to a line (minimum of 4 points per reaction progression) and by using an extinction coefficient of 17.4 mM^−1 cm^−1. In Method B (continuous monitoring), temperature-equilibrated reactions (1 mL) were monitored at 380 nm (for pH values below 6) or 400 nm (for pH values of 6 and above). Reactions were generally monitored 0.3 min for initial rate determinations. Delta extinction coefficients (product-substrate) used for molar conversion were determined by subtracting the absorbance of substrate (at pH 5 so even very minor contaminating 4NP would not contribute) from the absorbance of 4NP for each reaction condition. […] The concentration of 4NP substrates was determined by incubating the substrate with excess enzyme until an end point was reached, adding an aliquot (0.01 to 0.1 mL) to 0.1 M NaOH, recording the absorbance at 400 nm and using the extinction coefficient of 18.3 cm^−1mM^−1. Unless indicated otherwise, for both Methods A and B, reactions were initiated by adding a small aliquot of enzyme (generally 7 μl of enzyme diluted into 10 mM sodium phosphate, pH 7.0, and incubated on wet ice or at ˜25° C.) to the 1-mL, temperature-equilibrated (25° C.) reaction mixtures. For pH studies, buffers of constant ionic strength (I=0.3 M), adjusted with NaCl, were used as indicated: 100 mM succinate-NaOH (pH 4.3-6), 100 mM sodium phosphate (pH 6-8), 30 mM sodium pyrophosphate (pH 8-9), glycine-NaOH (pH 9) and glycylglycine-NaOH (pH 9).

SXA [5] = molecular target: T1, SXA; assay: biochemical; details: read-out: Km^4NPX; 100 mM succinate-NaOH, pH 5.3, 25° C.
[6] = molecular target: Selenomonas ruminantium GA192 β-D-xylosidase (SXA, parent SEQ ID NO: 2) variant D14A (Pseudoselenomonas ruminantium, UniProt O52575, D14A); assay: Steady-state kinetics of SXA mutant D14A with 4NP substrates
Procedure: (§8) Site-directed mutagenesis was performed using the QuikChange site-directed mutagenesis kit (Stratagene) according the manufacturer's instructions. […] Complete sequences were determined on a 3700 sequencer (Applied Biosystems) using T7 promoter and specific primers to confirm that only the intended mutations had been introduced. Lasergene software (DNAStar) was used to analyze the sequence data. pSRA1 and its mutated plasmids were used for the transformation of E. coli BL21(DE3). Transformants were inoculated to 50 mL Luria-Bertani (LB) broth supplemented with 50 mg ampicillin/mL and the flask was shaken overnight at 250 rpm and 37° C. Twenty mL of the overnight culture were transferred to a 2.8-liter baffled flask containing 1.0 liter SOB medium [2.0% tryptone, 0.5% yeast extract, 0.05% NaCl, 0.0186% KCl (all in wt/vol) and 10 mM MgSO4] supplemented with 50 mg ampicillin/mL. The culture was shaken at 250 rpm and 37° C. […] Cells were harvested by centrifugation and cell pellets were stored at −80° C. until use.
(§9) Initial purification steps and diafiltration steps were performed at 4° C. Chromatography was at room temperature (˜24° C.). Cells were thawed, suspended in 40 mL of 50 mM Tris-HCl, pH 7.5 (Buffer A) containing Complete protease inhibitor cocktail (Roche) and disrupted by sonication. Following centrifugation, the supernatant was brought to 30% saturation with respect to ammonium sulfate and centrifuged. […] The column was washed until absorbance at 280 nm of the eluate became minimal (˜200 mL) and developed with a 500-mL linear gradient (Buffer A+30% saturated ammonium sulfate to Buffer A).
(§10) Two methods were employed for determining initial rates. […] Initial rates were calculated from fitting the absorbance readings versus time to a line (minimum of 4 points per reaction progression) and by using an extinction coefficient of 17.4 mM^−1 cm^−1. […] The concentration of 4NP substrates was determined by incubating the substrate with excess enzyme until an end point was reached, adding an aliquot (0.01 to 0.1 mL) to 0.1 M NaOH, recording the absorbance at 400 nm and using the extinction coefficient of 18.3 cm^−1mM^−1. Unless indicated otherwise, for both Methods A and B, reactions were initiated by adding a small aliquot of enzyme (generally 7 μl of enzyme diluted into 10 mM sodium phosphate, pH 7.0, and incubated on wet ice or at ˜25° C.) to the 1-mL, temperature-equilibrated (25° C.) reaction mixtures. For pH studies, buffers of constant ionic strength (I=0.3 M), adjusted with NaCl, were used as indicated: 100 mM succinate-NaOH (pH 4.3-6), 100 mM sodium phosphate (pH 6-8), 30 mM sodium pyrophosphate (pH 8-9), glycine-NaOH (pH 9) and glycylglycine-NaOH (pH 9).

[7] = molecular target: Selenomonas ruminantium GA192 β-D-xylosidase (SXA, parent SEQ ID NO: 2) variant D127A (Pseudoselenomonas ruminantium, UniProt O52575, D127A); assay: Steady-state kinetics of SXA mutant D127A with 4NPX
Procedure: as §8
(§11) Initial purification steps and diafiltration steps were performed at 4° C. Chromatography was at room temperature (˜24° C.). Cells were thawed, suspended in 40 mL of 50 mM Tris-HCl, pH 7.5 (Buffer A) containing Complete protease inhibitor cocktail (Roche) and disrupted by sonication. […] The column was washed until absorbance at 280 nm of the eluate became minimal (˜200 mL) and developed with a 500-mL linear gradient (Buffer A+30% saturated ammonium sulfate to Buffer A).
(§12) Two methods were employed for determining initial rates. […] Initial rates were calculated from fitting the absorbance readings versus time to a line (minimum of 4 points per reaction progression) and by using an extinction coefficient of 17.4 mM^−1 cm^−1. […] The concentration of 4NP substrates was determined by incubating the substrate with excess enzyme until an end point was reached, adding an aliquot (0.01 to 0.1 mL) to 0.1 M NaOH, recording the absorbance at 400 nm and using the extinction coefficient of 18.3 cm^−1mM^−1. […]

[8] = molecular target: Selenomonas ruminantium GA192 β-D-xylosidase (SXA, parent SEQ ID NO: 2) variant E186A (Pseudoselenomonas ruminantium, UniProt O52575, E186A); assay: Steady-state kinetics of SXA mutant E186A with 4NP substrates
Procedure: as §8, §9, §10

SXA [9] = molecular target: T1, SXA; details: for relative kcat values: pH 5.3 and 25° C., relative to A2
Procedure: as §4, §5, §6

[10] = molecular target: T2, Selenomonas ruminantium GA192 β-D-xylosidase (SXA), wild type, SEQ ID NO: 2; assay: Steady-state kinetics of SXA with 4NP-glycosides (Example 1, Methods A and B)
Procedure: Kinetics with 4NP Substrates
as §7

[11] = molecular target: Selenomonas ruminantium GA192 β-D-xylosidase (SXA, parent SEQ ID NO: 2) variant R290A (Pseudoselenomonas ruminantium, UniProt O52575, R290A); assay: Steady-state kinetics of SXA mutant R290A with 4NPX
Procedure: as §8, §9, §10

[12] = molecular target: Selenomonas ruminantium GA192 β-D-xylosidase (SXA, parent SEQ ID NO: 2) variant H248A (Pseudoselenomonas ruminantium, UniProt O52575, H248A); assay: Steady-state kinetics of SXA mutant H248A with 4NPX
Procedure: as §8, §11, §12

SXA [13] = molecular target: T1, SXA; details: read-out: Km^4NPX; pH 5.3, 25° C., HPLC of D-xylose
Source text: as §1

SXA [14] = molecular target: T1, SXA
Procedure: as §2, §3

[15] = molecular target: T3, enzyme from Bacillus pumilus (Bacillus pumilus, UniProt P07129); details: pH 7, 25° C.; cited from earlier work
T3 sequence (P07129 1-535): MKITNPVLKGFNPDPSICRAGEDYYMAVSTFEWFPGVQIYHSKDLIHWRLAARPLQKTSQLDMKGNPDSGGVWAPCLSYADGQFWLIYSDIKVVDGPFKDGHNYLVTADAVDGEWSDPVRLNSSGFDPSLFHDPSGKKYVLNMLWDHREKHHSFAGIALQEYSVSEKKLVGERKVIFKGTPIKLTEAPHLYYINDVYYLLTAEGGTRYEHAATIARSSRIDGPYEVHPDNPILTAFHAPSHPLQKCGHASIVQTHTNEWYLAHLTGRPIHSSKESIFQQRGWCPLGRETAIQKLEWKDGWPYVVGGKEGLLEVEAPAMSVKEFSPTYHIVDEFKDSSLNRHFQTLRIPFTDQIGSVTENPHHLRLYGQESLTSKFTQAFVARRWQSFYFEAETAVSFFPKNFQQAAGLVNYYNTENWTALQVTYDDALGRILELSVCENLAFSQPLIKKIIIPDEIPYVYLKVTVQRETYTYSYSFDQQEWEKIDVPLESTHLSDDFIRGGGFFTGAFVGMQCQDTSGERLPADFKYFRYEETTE

[16] = test system: Bacillus pumilus β-xylosidase; details: pH 7, 25° C.; cited from earlier work
[17] = Exper. 1: succinate pH 5.3, Method A, η/ηo 1.00
[18] = Exper. 1: succinate pH 5.3, Method A, η/ηo 6.12 (50% sucrose)
[19] = Exper. 2: MES pH 6.00, Method B, η/ηo 1.00
[20] = Exper. 2: MES pH 6.00, Method B, η/ηo 6.85 (50% sucrose)
[21] = I=0.3 M, 25° C., Eq. 7 (4NPX), Eq. 5 (4NPA)
[22] = 100 mM succinate-NaOH, pH 5.3, 25° C, Method A
[23] = same reaction conditions, pH 5.3, 25° C.
[24] = 100 mM succinate-NaOH, pH 5.3, 25° C

## O=[N+]([O-])c1ccc(O)cc1 [4NP, 4-nitrophenol]
SXA [1]
  Ki: 6.28 ± 0.55 mM

## O=[N+]([O-])c1ccc(O[C@@H]2OC[C@@H](O)[C@H](O)[C@H]2O)cc1 [4NPX, 4-nitrophenyl-β-D-xylopyranoside]
[2]
  factor by which kcat is higher than that of the Bacillus pumilus enzyme: 4
[3]; pH 5.3, 25° C
  relative kcat value: 340
SXA [4]
  pH-independent kcat: 32.7±0.5 s^−1
  pH-independent kcat/Km: 58.7±1.3 s^−1 mM^−1
SXA [4]; 5 mM 4NP glycoside, 100 mM succinate-NaOH, pH 5.3, 25° C., Method A, initial rate relative to 4NPX
  Relative Rate: 1.00 ± 0.01
SXA [4]; 100 mM sodium phosphate, pH 7.0, 25° C., Method B
  Km: 443 ± 8 µM
SXA [4]; 1/Km versus pH, Eq. 4 (4NPX), Eq. 5 (4NPA)
  pH-independent 1/Km: 2.65±0.081 mM^−1
SXA [4]; Eq. 4
  pKa of 1/Km versus pH (single protonatable group): 5.6 and 5.56±0.08
SXA [4]; [17]
  Km: 742 ± 41 µM
  kcat Rel. to η/ηo = 1: 1.00
SXA [4]; [18]
  Km: 690 ± 35 µM
  kcat Rel. to η/ηo = 1: 0.910 ± 0.0152
SXA [4]; [19]
  Km: 699 ± 35 µM
  kcat Rel. to η/ηo = 1: 1.00
SXA [4]; [20]
  Km: 637 ± 81 µM
  kcat Rel. to η/ηo = 1: 0.920 ± 0.040
SXA [4]; I=0.3 M, 25° C., Eq. 5
  pKa1 of kcat versus pH: 3.5 and ~3.6 and 3.54±0.10
  pKa1 of kcat/Km versus pH: ~5.0 and 5.00±0.04
  pKa2 of kcat versus pH: 6.9 and 6.90±0.03
  pKa2 of kcat/Km versus pH: 7.23±0.04
SXA [4]; [21]
  pKa1 of 1/Km versus pH: 4.8 and 4.81±0.21
  pKa2 of 1/Km versus pH: 6.4 and 6.39±0.26
SXA [4]; from pH dependency of 1/Km
  higher affinity of dianionic SXA (D14^−E186^−) than monoanionic SXA (D14^−E186^H): ~2 fold and 1.9 fold
SXA [4]; substrate 4NPX, SXA pH 5.3, 25° C. (Example 1) vs B. pumilus pH 7.15, 25° C.
  factor by which kcat of SXA is higher than that of the B. pumilus enzyme: 4
SXA [5]
  Km: 716 ± 32 µM
[6]; [22]
  kcat: 0.00954 ± 0.00016 s⁻¹
[6]; pH 5.3, 25° C.
  factor by which kcat is degraded vs wild type: 3300
[7]; [22]
  kcat: 0.000129 ± 0.000003 s⁻¹
[7]; pH 5.3, 25° C.
  factor by which kcat is degraded vs wild type: 24000
[8]; [22]
  kcat: 0.00267 ± 0.00005 s⁻¹
[8]; pH 5.3, 25° C.
  factor by which kcat is degraded vs wild type: 12000
SXA [9]
  relative kcat values: 340
[10]; 100 mM MES-NaOH, pH 6.00, 25° C, Method B, 50% sucrose, η/ηo 6.85
  kcat: 30.1 ± 1.1 s⁻¹
[10]; 100 mM MES-NaOH, pH 6.00, 25° C, Method B, η/ηo 1.00
  kcat: 32.9 ± 0.5 s⁻¹
[10]; 100 mM succinate-NaOH, pH 5.3, 25° C, Method A, no sucrose
  kcat: 32.8 ± 0.6 s⁻¹ and 31.1 ± 0.4 s⁻¹
[10]; from pH dependence of 1/Km
  affinity of dianionic SXA (D14^−E186^−), higher than that of monoanionic SXA (D14^−E186^H): ~2 fold and 1.9 fold
[10]; pH 5.3, 25° C, Method A, 50% sucrose, η/ηo 6.12
  kcat: 29.8 ± 0.5 s⁻¹
[10]; pH 5.3, η/ηo 6.12
  kcat Rel. to η/ηo = 1: 0.910 ± 0.0152
[10]; pH 6.00, η/ηo 6.85
  kcat Rel. to η/ηo = 1: 0.920 ± 0.040
[10]; pH profile, I=0.3 M, Method B
  pH-independent kcat: 32.7±0.5 s^−1
[11]; 100 mM succinate-NaOH, pH 5.3, 25° C, Method A, not well determined (highest 4NPX 5 mM)
  kcat: 0.0126 ± 0.0020 s⁻¹
[11]; pH 5.3, 25° C.
  factor by which kcat is degraded vs wild type: 2500
  increase of Km(4NPX) vs wild type: 70 fold
[12]; [22]
  kcat: 0.0950 ± 0.0025 s⁻¹
[12]; pH 5.3, 25° C.
  factor by which kcat is degraded vs wild type: 330
SXA [13]
  Km: 758 ± 59 µM

## OC1OC[C@@H](O[C@@H]2OC[C@@H](O)[C@H](O)[C@H]2O)[C@H](O)[C@H]1O (stereo partly drawn) [X2, 1,4-β-D-Xylobiose]
SXA [14]
  pH-independent kcat: 172±2
SXA [14]; 100 mM succinate-NaOH, pH 5.3, 25° C., improved quench (Example 3)
  Km: 2060 ± 80 µM
SXA [14]; Eq. 5, I=0.3 M, 25° C.
  pKa of kcat versus pH (single group): 7.57±0.03
SXA [14]; Eq. 6, I=0.3 M, 25° C.
  pKa1 of kcat/Km versus pH: 4.86±0.06
  pKa2 of kcat/Km versus pH: 7.01±0.05
SXA [14]; Eq. 7, I=0.3 M, 25° C.
  pKa1 of 1/Km versus pH: 4.78±0.11
  pKa2 of 1/Km versus pH: 7.03±0.17
SXA [14]; SXA pH 5.3, 25° C. vs B. pumilus pH 7.15, 25° C.
  factor by which kcat of SXA is higher than that of the Bacillus pumilus enzyme: 10
SXA [14]; from pH dependencies of 1/Km
  lower affinity of dianionic SXA (D14^−E186^−) than monoanionic SXA (D14^−E186^H): 2.9 fold and 3 fold
SXA [14]; kcat/Km versus pH, Eq. 6, I=0.3 M, 25° C. (FIG. 19)
  pH-independent kcat/Km: 123±5
SXA [14]; pH 5.3, 25° C.
  kcat lower than previous determination (Example 1): 55%
  kcat/Km lower than previous determination (Example 1): 9%
SXA [9]; 100 mM succinate-NaOH, pH 5.3, 25° C. (Example 1)
  Km: 4200 µM
SXA [9]; assuming noncatalyzed rate similar to a-methylglucopyranoside
  dissociation constant for the transition state: ~10^−19
SXA [9]; hydrolysis of X4, pH 5.30, 25° C.
  time of peak height of intermediate product, observed: 2940 s
SXA [9]; hydrolysis of X6, pH 5.30, 25° C.
  time of peak height of intermediate product, observed: 13384 s
SXA [9]
  relative kcat values: 5600
SXA [9]; [23]
  kcat, fold larger than with 4NPX: 12 fold and 13 fold
  kcat/Km, fold larger than with 4NPX: 2 fold
[15]
  kcat, Bacillus pumilus enzyme: 18 s⁻¹

## OC1OC[C@@H](O[C@@H]2OC[C@@H](O)[C@H](O)[C@H]2O)[C@H](O)[C@H]1O (stereo partly drawn) [X2, 1,4-β-D-xylobiose]
[2]; [24]
  kcat: 185 ± 3 s⁻¹
[2]
  factor by which kcat is higher than that of the Bacillus pumilus enzyme: 10
[2]; from pH dependence of 1/Km
  affinity of dianionic SXA (D14^−E186^−), lower than that of monoanionic SXA (D14^−E186^H): 2.9 fold and 3 fold
[2]; pH 5.3, 25° C (improved technique), approximate
  kcat: approximately 185 sec^−1
[2]; pH profile, I=0.3 M, 25° C
  pH-independent kcat: 172±2
[3]; [24]
  kcat: 412 s⁻¹ and 412 ± 18 s⁻¹
[3]; pH 5.3, 25° C (Example 1), approximate
  kcat: approximately 410 sec^−1
[3]; pH 5.3, 25° C
  relative kcat value: 5600
[3]; pH 5.3, 25° C.
  kcat relative to that of substrates X3-X6: 2-4 fold
[3]; [23]
  kcat ratio X2 vs 4NPX: 12 fold and 13 fold
[16]
  kcat: 18 s⁻¹
